{
  "source": "patent US20230085307A1",
  "about": "“PYRIDAZINONE COMPOUND AND HERBICIDE” (NISSAN CHEMICAL CORPORATION, priority 2019, published 2023)",
  "key": {"persian speedwell [1]": {"system": "persian speedwell", "experiment": "Test Example 5: herbicidal effect by foliage application, plastic box (Table 20, symbol R)", "format": "in vivo, Persian speedwell (Veronica persica)", "conditions": "foliage application, 320 g/ha", "in_short": "(§1)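 Plants were sown into sterilized diluvial soil under about 1.5 cm cover and kept in a greenhouse at 25° C. to 30° C. Fourteen days on, foliage received an even spray of the diluted emulsion. Herbicidal or crop effect was judged three weeks afterwards.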"}, "oval-leafed pondweed [2]": {"system": "oval-leafed pondweed", "experiment": "Test Example 1: herbicidal activity, application before weed generation under submerged conditions (Table 16, symbol C)", "format": "in vivo, oval-leafed pondweed (Monochoria vaginalis)", "conditions": "320 g/ha applied herbicide", "in_short": "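Alluvial soil was flooded to 4 cm depth, weed seeds were sown mixed and 2.5-leaf rice seedlings were transplanted. On sowing day, the compound's emulsion, diluted in water to a set dose, was applied to the water surface. Plants grew at 25–30 °C and were scored 0–5 after three weeks.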"}, "windgrass": {"system": "windgrass", "experiment": "Test Example 5: herbicidal effect by foliage application, plastic box (Table 20, symbol L)", "format": "in vivo, windgrass (Apera spica-venti)", "conditions": "foliage application, 320 g/ha", "in_short": "as §1"}, "blackgrass": {"system": "blackgrass", "experiment": "Test Example 4: herbicidal effect by soil treatment (Table 19, symbol J)", "format": "in vivo, blackgrass (Alopecurus myosuroides)", "in_short": "(§2)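 In this soil treatment, the formulated compound reached the seeds only through the soil: seeds were buried about 1.5 cm deep in sterilized diluvial soil, then the diluted emulsion was sprayed over the surface. After three weeks at 25° C. to 30° C. in a greenhouse, effects were graded on criteria from an earlier test.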"}, "lambsquarters": {"system": "lambsquarters", "experiment": "Test Example 5: herbicidal effect by foliage application, plastic box (Table 20, symbol O)", "format": "in vivo, lambsquarters (Chenopodium album)", "conditions": "foliage application, 320 g/ha", "in_short": "as §1"}, "redroot pigweed [3]": {"system": "redroot pigweed", "experiment": "Test Example 4: herbicidal effect by soil treatment (Table 19, symbol N)", "format": "in vivo, redroot pigweed (Amaranthus retroflexus)", "in_short": "as §2"}, "Japanese bulrush": {"system": "Japanese bulrush", "experiment": "Test Example 2: herbicidal activity, application during weed generation under submerged conditions (Table 17, symbol B)", "format": "in vivo, Japanese bulrush (Schoenoplectus juncoides)", "conditions": "AAH 320 g/ha; application during weed generation, submerged conditions", "in_short": "(§3)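 Mixed weed seedlings in alluvial soil under a 4 cm water layer, greenhouse-grown at 25–30° C. Compound given as a diluted emulsion into the floodwater at the 1–2 leaf stage; response graded after three weeks.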"}, "velvetleaf": {"system": "velvetleaf", "experiment": "Test Example 4: herbicidal effect by soil treatment (Table 19, symbol M)", "format": "in vivo, velvetleaf (Abutilon theophrasti)", "in_short": "as §2"}, "green foxtail": {"system": "green foxtail", "experiment": "Test Example 4: herbicidal effect by soil treatment (Table 19, symbol G)", "format": "in vivo, green foxtail (Setaria viridis)", "in_short": "as §2"}, "barnyard grass [4]": {"system": "barnyard grass", "experiment": "Test Example 4: herbicidal effect by soil treatment (Table 19, symbol H)", "format": "in vivo, barnyard grass (Echinochloa crus-galli)", "in_short": "as §2"}, "southern crabgrass": {"system": "southern crabgrass", "experiment": "Test Example 5: herbicidal effect by foliage application, plastic box (Table 20, symbol F)", "format": "in vivo, southern crabgrass (Digitaria ciliaris)", "conditions": "foliage application, 320 g/ha", "in_short": "as §1"}, "oval-leafed pondweed [5]": {"system": "oval-leafed pondweed", "experiment": "Test Example 2: herbicidal activity, application during weed generation under submerged conditions (Table 17, symbol C)", "format": "in vivo, oval-leafed pondweed (Monochoria vaginalis)", "conditions": "AAH 320 g/ha; application during weed generation, submerged conditions", "in_short": "as §3"}, "barnyard grass [6]": {"system": "barnyard grass", "experiment": "Test Example 3: herbicidal effect by foliage application, Wagner pot (Table 18, symbol H)", "format": "in vivo, barnyard grass (Echinochloa crus-galli)", "conditions": "320 g/ha", "in_short": "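Plants were sown in alluvial soil held under 0.1–0.5 cm standing water and grown 14 days in a greenhouse at 25–30 °C. An emulsifiable formulation, water-diluted to the set dose, was then sprayed onto the foliage, and effects were scored three weeks later using previously defined criteria.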"}, "chickweed": {"system": "chickweed", "experiment": "Test Example 5: herbicidal effect by foliage application, plastic box (Table 20, symbol P)", "format": "in vivo, common chickweed (Stellaria media)", "conditions": "foliage application, 320 g/ha, three weeks after application", "in_short": "as §1"}, "redroot pigweed [7]": {"system": "redroot pigweed", "experiment": "Test Example 5: herbicidal effect by foliage application, plastic box (Table 20, symbol N)", "format": "in vivo, redroot pigweed (Amaranthus retroflexus)", "conditions": "foliage application, 320 g/ha, three weeks after application", "in_short": "as §1"}, "persian speedwell [8]": {"system": "persian speedwell", "experiment": "Test Example 4: herbicidal effect by soil treatment (Table 19, symbol R)", "format": "in vivo, Persian speedwell (Veronica persica)", "conditions": "amount of applied herbicide 320 g/ha", "in_short": "as §2"}, "[9]": {"conditions": "amount of applied herbicide 320 g/ha"}},
  "data": [
    {"smiles": "C=CCC(C)Oc1ccc(-c2sc3ccccc3c2-c2c(O)c(C)nn(C)c2=O)cc1", "note": "(racemic) [1-213]", "values": [
      {"measurement": "effect on persian speedwell (R)", "setting": "persian speedwell [1]; 3 weeks after application", "result": "5 (Herbicidal rate of 90% or more (almost completely withered))"},
      {"measurement": "Herbicidal effect on C: oval-leafed pondweed (grade 0-5)", "setting": "oval-leafed pondweed [2]", "result": "5 (Herbicidal rate of 90% or more (almost completely withered))"},
      {"measurement": "effect on windgrass (L)", "setting": "windgrass; 3 weeks after application", "result": "5 (Herbicidal rate of 90% or more (almost completely withered))"},
      {"measurement": "J: blackgrass, herbicidal effect rating", "setting": "blackgrass; AAH 320 g/ha", "result": "1 (Herbicidal rate of 5% or more and less than 20%)"},
      {"measurement": "effect on lambsquarters (O)", "setting": "lambsquarters; 3 weeks after application", "result": "5 (Herbicidal rate of 90% or more (almost completely withered))"},
      {"measurement": "N: redroot pigweed, herbicidal effect rating", "setting": "redroot pigweed [3]; AAH 320 g/ha", "result": "0 (Herbicidal rate of 5% or less (almost no effect))"},
      {"measurement": "herbicidal effect rating, B: Japanese bulrush", "setting": "Japanese bulrush", "result": "3 (Herbicidal rate of 40% or more and less than 70%)"},
      {"measurement": "M: velvetleaf, herbicidal effect rating", "setting": "velvetleaf; AAH 320 g/ha", "result": "0 (Herbicidal rate of 5% or less (almost no effect))"},
      {"measurement": "G: green foxtail, herbicidal effect rating", "setting": "green foxtail; AAH 320 g/ha", "result": "0 (Herbicidal rate of 5% or less (almost no effect))"},
      {"measurement": "H: barnyard grass, herbicidal effect rating", "setting": "barnyard grass [4]; AAH 320 g/ha", "result": "0 (Herbicidal rate of 5% or less (almost no effect))"},
      {"measurement": "effect on southern crabgrass (F)", "setting": "southern crabgrass; 3 weeks after application", "result": "5 (Herbicidal rate of 90% or more (almost completely withered))"},
      {"measurement": "herbicidal effect rating, C: oval-leafed pondweed", "setting": "oval-leafed pondweed [5]", "result": "4 (Herbicidal rate of 70% or more and less than 90%)"},
      {"measurement": "herbicidal effect on H (barnyard grass), rating 0-5", "setting": "barnyard grass [6]", "result": "5 (Herbicidal rate of 90% or more (almost completely withered))"}
    ]},
    {"smiles": "CCCCCOc1ccc(-c2sc3ccccc3c2-c2c(O)c(C)nn(C)c2=O)cc1", "note": "[1-026]", "values": [
      {"measurement": "herbicidal effect grade, R: persian speedwell", "setting": "persian speedwell [1]; three weeks after application", "result": "5 (Herbicidal rate of 90% or more (almost completely withered))"},
      {"measurement": "Herbicidal effect on C: oval-leafed pondweed (grade 0-5)", "setting": "oval-leafed pondweed [2]", "result": "1 (Herbicidal rate of 5% or more and less than 20%)"},
      {"measurement": "herbicidal effect grade, L: windgrass", "setting": "windgrass; three weeks after application", "result": "4 (Herbicidal rate of 70% or more and less than 90%)"},
      {"measurement": "herbicidal effect rating, J: blackgrass", "setting": "blackgrass; [9]", "result": "0 (Herbicidal rate of 5% or less (almost no effect))"},
      {"measurement": "herbicidal effect grade, P: chickweed", "setting": "chickweed", "result": "5 (Herbicidal rate of 90% or more (almost completely withered))"},
      {"measurement": "herbicidal effect grade, O: lambsquarters", "setting": "lambsquarters; three weeks after application", "result": "0 (Herbicidal rate of 5% or less (almost no effect))"},
      {"measurement": "herbicidal effect rating, N: redroot pigweed", "setting": "redroot pigweed [3]; [9]", "result": "5 (Herbicidal rate of 90% or more (almost completely withered))"},
      {"measurement": "herbicidal effect rating, B: Japanese bulrush", "setting": "Japanese bulrush", "result": "3 (Herbicidal rate of 40% or more and less than 70%)"},
      {"measurement": "herbicidal effect grade, N: redroot pigweed", "setting": "redroot pigweed [7]", "result": "5 (Herbicidal rate of 90% or more (almost completely withered))"},
      {"measurement": "herbicidal effect rating, M: velvetleaf", "setting": "velvetleaf; [9]", "result": "0 (Herbicidal rate of 5% or less (almost no effect))"},
      {"measurement": "herbicidal effect rating, G: green foxtail", "setting": "green foxtail; [9]", "result": "0 (Herbicidal rate of 5% or less (almost no effect))"},
      {"measurement": "herbicidal effect rating, H: barnyard grass", "setting": "barnyard grass [4]; [9]", "result": "0 (Herbicidal rate of 5% or less (almost no effect))"},
      {"measurement": "herbicidal effect rating, R: persian speedwell", "setting": "persian speedwell [8]", "result": "3 (Herbicidal rate of 40% or more and less than 70%)"},
      {"measurement": "herbicidal effect grade, F: southern crabgrass", "setting": "southern crabgrass; three weeks after application", "result": "4 (Herbicidal rate of 70% or more and less than 90%)"},
      {"measurement": "herbicidal effect on H (barnyard grass), rating 0-5", "setting": "barnyard grass [6]", "result": "4 (Herbicidal rate of 70% or more and less than 90%)"}
    ]}
  ]
}
